# According to the supplement of paper PMC10307832:
# Legend:
# Assay in all cases: relative viability (nuclei count vs DMSO), 5 days (fraction); higher = more cells survive
# TPCA-1 + Phenformin = compound: C1=CC(=CC=C1C2=CC(=C(S2)NC(=O)N)C(=O)N)F [TPCA-1] + N=C(N)NC(=N)NCCc1ccccc1 [Phenformin] (partner 250 µM)
# Procedure, shortened: (§1)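 After 5 days of treatment, lung cancer cells in 1536-well plates were fixed and stained in a single step (final 0.05% Triton X-100, 1% formaldehyde, 1 ug/ml Hoechst) and their nuclei counted on 4× images. Treatment had been applied by pin tool the day after seeding as one drug alone or as a fixed anchor-drug dose with five library-drug doses (not always all listed) in √10 steps. Relative viability is the nuclei count of treated wells divided by that of vehicle wells, and values are medians of duplicate plates.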
# [1] = compound: C1/C(=C\C2=CC=CS2)/C(=O)/C(=C/C3=CC=CS3)/C1 + CC(=O)c1c(C)c2cnc(Nc3ccc(N4CCNCC4)cn3)nc2n(C2CCCC2)c1=O [Palbociclib] (partner 0.5 µM)
# Procedure, shortened: as §1
# TPCA-1 + Olaparib = compound: C1=CC(=CC=C1C2=CC(=C(S2)NC(=O)N)C(=O)N)F [TPCA-1] + O=C(c1cc(Cc2n[nH]c(=O)c3ccccc23)ccc1F)N1CCN(C(=O)C2CC2)CC1 [Olaparib] (partner 8 µM)
# Procedure, shortened: as §1
# [2] = compound: C[C@]12O[C@H](C[C@]1(O)CO)n1c3ccccc3c3c4c(c5c6ccccc6n2c5c31)CNC4=O [Lestaurtinib] + N=C(N)NC(=N)NCCc1ccccc1 [Phenformin] (partner 250 µM)
# Procedure, shortened: as §1
Cell Line,relative viability (TPCA-1 + Phenformin; first compound 0.04 µM),relative viability (TPCA-1 + Phenformin; first compound 0.1265 µM),relative viability (TPCA-1 + Phenformin; first compound 0.4 µM),relative viability (TPCA-1 + Phenformin; first compound 1.265 µM),relative viability (TPCA-1 + Phenformin; first compound 4 µM),relative viability ([1]; first compound 0.2 µM),relative viability ([1]; first compound 0.6325 µM),relative viability ([1]; first compound 2 µM),relative viability ([1]; first compound 6.325 µM),relative viability ([1]; first compound 20 µM),relative viability (TPCA-1 + Olaparib; first compound 0.04 µM),relative viability (TPCA-1 + Olaparib; first compound 0.1265 µM),relative viability (TPCA-1 + Olaparib; first compound 0.4 µM),relative viability (TPCA-1 + Olaparib; first compound 1.265 µM),relative viability (TPCA-1 + Olaparib; first compound 4 µM),relative viability ([2]; first compound 0.005 µM),relative viability ([2]; first compound 0.01581 µM),relative viability ([2]; first compound 0.05 µM),relative viability ([2]; first compound 0.1581 µM),relative viability ([2]; first compound 0.5 µM)
SK-MES-1,0.679,0.612,0.668,0.596,0.498,0.347,0.321,0.329,0.311,0.292,0.696,0.577,0.801,0.611,0.369,0.693,0.59,0.484,0.441,0.186
NCI-H2405,0.459,0.37,0.471,0.166,0.38,0.555,0.509,0.575,0.52,0.504,0.908,0.833,0.951,0.717,0.691,0.426,0.392,0.387,0.28,0.284
NCI-H2023,0.488,0.423,0.476,0.359,0.269,0.454,0.386,0.495,0.235,0.332,0.633,0.445,0.581,0.516,0.411,0.451,0.451,0.343,0.344,0.144
NCI-H838,0.612,0.516,0.672,0.367,0.288,0.225,0.212,0.211,0.203,0.194,0.867,0.718,0.826,0.557,0.406,0.508,0.543,0.475,0.227,0.131
NCI-H661,0.281,0.272,0.269,0.306,0.253,0.405,0.403,0.41,0.394,0.421,0.751,0.748,0.77,0.721,0.758,0.271,0.277,0.303,0.251,0.248
NCI-H1734,0.42,0.363,0.42,0.391,0.287,0.386,0.336,0.346,0.225,0.359,0.648,0.559,0.692,0.561,0.463,0.385,0.391,0.255,0.208,0.18
NCI-H1650,0.452,–,0.487,0.469,0.386,0.312,0.325,0.351,0.373,0.333,0.893,0.826,0.758,0.822,0.863,0.419,0.511,0.424,0.373,0.151
NCI-H1944,0.238,0.202,0.217,0.176,0.189,0.349,0.371,0.349,–,0.317,0.482,0.424,0.436,0.425,0.336,0.194,0.209,0.164,0.133,0.132
LK-2,0.868,0.236,0.444,0.603,0.206,0.639,–,0.706,0.787,0.732,0.68,0.371,0.516,0.741,0.335,0.542,0.738,0.275,0.233,0.217
HCC-15,0.578,0.479,0.509,0.435,0.275,0.721,0.734,0.824,0.682,0.73,0.798,0.686,0.773,0.67,0.594,0.538,0.55,0.334,0.305,0.132
NCI-H727,0.673,0.417,0.488,0.389,0.479,0.632,0.678,0.61,–,0.669,0.86,0.69,0.666,0.57,0.534,0.475,0.655,0.648,0.515,0.298
HOP-62,0.692,0.64,0.684,0.603,0.485,0.486,0.499,0.465,0.41,0.473,0.333,0.552,0.317,0.338,0.14,0.637,0.768,0.485,0.613,0.274
NCI-H3122,0.383,0.401,0.409,0.374,0.404,0.178,0.175,0.172,0.201,0.171,0.627,0.605,0.594,0.588,0.439,0.365,0.431,0.372,0.363,0.175
NCI-H1395,0.445,0.488,0.449,0.436,0.499,0.616,0.683,0.612,0.566,0.599,0.496,0.426,0.494,0.519,0.494,0.451,0.432,0.422,0.484,0.312
NCI-H647,0.557,0.484,0.614,0.38,0.151,0.441,0.442,0.378,0.398,0.405,0.763,0.437,0.66,0.525,0.358,0.354,0.444,0.181,0.11,0.104
NCI-H650,0.493,0.436,0.466,0.311,0.293,0.431,0.33,0.345,0.322,0.356,0.4,0.323,0.408,0.385,0.354,0.427,0.415,0.362,0.265,0.314

Cell Line,relative viability (TPCA-1 + Phenformin; first compound 0.04 µM),relative viability (TPCA-1 + Phenformin; first compound 0.1265 µM),relative viability (TPCA-1 + Phenformin; first compound 0.4 µM),relative viability (TPCA-1 + Phenformin; first compound 1.265 µM),relative viability (TPCA-1 + Phenformin; first compound 4 µM),relative viability ([1]; first compound 0.2 µM),relative viability ([1]; first compound 0.6325 µM),relative viability ([1]; first compound 2 µM),relative viability ([1]; first compound 6.325 µM),relative viability ([1]; first compound 20 µM),relative viability (TPCA-1 + Olaparib; first compound 0.04 µM),relative viability (TPCA-1 + Olaparib; first compound 0.1265 µM),relative viability (TPCA-1 + Olaparib; first compound 0.4 µM),relative viability (TPCA-1 + Olaparib; first compound 1.265 µM),relative viability (TPCA-1 + Olaparib; first compound 4 µM),relative viability ([2]; first compound 0.005 µM),relative viability ([2]; first compound 0.01581 µM),relative viability ([2]; first compound 0.05 µM),relative viability ([2]; first compound 0.1581 µM),relative viability ([2]; first compound 0.5 µM)
EKVX,0.215,0.22,0.252,0.198,0.125,0.383,0.388,0.367,–,0.409,0.963,–,0.837,0.568,0.727,0.207,0.245,0.231,0.244,0.239
NCI-H460,0.607,0.523,0.53,0.502,0.336,0.201,0.174,0.224,0.244,0.146,0.475,0.465,0.463,0.392,0.278,0.583,0.533,0.401,0.307,0.0805
NCI-H2342,0.612,0.538,0.574,0.504,0.47,0.511,0.568,0.531,0.482,0.516,0.487,0.351,0.44,0.423,0.325,0.545,0.656,0.551,0.652,0.613
LCLC-97TM1,0.44,0.394,0.414,0.294,0.386,0.255,0.228,0.203,0.21,0.196,0.301,0.237,0.374,0.346,0.216,0.47,0.442,0.403,0.325,0.2
COR-L23,0.483,0.47,0.436,0.415,0.328,0.333,0.283,0.338,0.294,0.297,0.393,0.329,0.286,0.303,0.325,0.527,0.551,0.256,0.327,0.14
NCI-H1355,0.515,0.415,0.47,0.393,0.305,0.381,0.379,0.408,0.34,0.382,0.8,0.633,0.796,0.694,0.396,0.455,0.465,0.374,0.391,0.263
NCI-H1666,0.547,0.569,0.533,0.529,0.581,0.68,0.645,0.624,0.521,0.672,0.767,0.673,0.71,0.757,0.768,0.613,0.617,0.668,0.561,0.389
EPLC-272H,0.343,0.391,0.292,0.289,0.272,0.326,0.327,0.356,0.213,0.345,0.992,0.709,0.839,0.455,0.372,0.273,0.306,0.281,0.225,0.125
ChaGo-K-1,0.524,0.472,0.54,0.48,0.259,0.956,0.954,0.84,0.719,0.479,0.434,0.321,0.445,0.374,0.221,0.484,0.447,0.448,0.333,0.275
NCI-H1651,0.361,0.295,0.368,0.327,0.262,0.48,0.554,0.563,0.47,0.527,0.192,0.177,0.185,0.171,0.134,0.326,0.429,0.295,0.329,0.184
HCC-44,0.195,0.178,0.209,–,0.153,0.984,1,0.926,0.862,1.04,0.983,0.938,0.95,0.908,0.937,0.194,0.193,0.173,0.283,0.185
SW 1573,0.341,0.323,0.411,0.296,0.331,0.444,0.459,0.516,0.366,0.347,0.539,0.414,0.481,0.476,0.48,0.421,0.439,0.214,0.28,0.0937
PC-3 [JPC-3],0.461,0.461,0.484,0.486,0.468,–,0.587,0.5,0.43,0.523,1.19,1.17,1.11,1.05,1,0.434,0.504,0.352,0.477,0.386
LOU-NH91,0.712,0.677,0.73,0.599,0.664,0.564,0.584,0.523,0.507,0.55,0.885,0.846,0.922,0.94,0.773,0.677,0.722,0.647,0.506,0.362
PC-14,0.575,0.492,0.717,0.508,0.568,0.668,0.563,0.523,0.435,0.501,0.295,0.324,0.308,0.327,0.341,0.445,0.871,0.633,0.353,0.106
NCI-H2087,0.475,0.417,0.417,0.351,0.154,0.272,0.215,0.271,0.168,0.303,0.711,0.588,0.541,0.546,0.364,0.462,0.44,0.43,0.416,0.344
